Measurements reported in patent publication US8188078B2 (Sanofi-Aventis, priority 2007, dated 2012).
Structures can show the parent of a compound that is named as a salt.

Legend:
[1] = molecular target: RON (Homo sapiens, UniProt Q04912); test: Test B: HTRF RON test in 96-well format; assay type: biochemical
Description: B) HTRF RON Test in 96-Well Format
The inhibitory potency (IC50) of molecules on the enzymatic activity of kinase phosphorylation RON is determined by the HTRF technique. The activity of the kinase is evaluated by measuring the phosphorylation of the substrate polyGAT by the enzyme, in the presence of ATP.
Final RON 5 nM is incubated in the presence of the molecule to be tested (for a final concentration range from 0.17 nM to 10 μM, final DMSO 3%) in buffer MOPS 10 mM pH 7, DTT 1 mM, Tween 20 0.01%. This pre-incubation is performed in 96 half-well black plates in a volume of 35 μl for 30 minutes at room temperature.
The reaction is initiated by adding 15 μl of a mixture of substrates constituted of biotinylated poly-(GAT) 1 μg/ml final and ATP 10 μM final in the presence of MgCl2 5 mM final for a final volume of 50 μl.
After incubation for 30 min at room temperature, the reaction is stopped with 30 μl of a mixture of Hepes 100 mM final pH 7, potassium fluoride 400 mM final, BSA 0.1% and EDTA 133 mM in the presence of 80 ng per well of antibodies Streptavidin ITS-XL665 Cis-Bio Int. and 18 ng per well of anti-phosphotyrosine PT66 labelled with europium cryptate.
After incubation for 2 hours at room temperature, reading is carried out at 2 wavelengths 620 nm and 665 nm in a Genios TECAN reader for the TRACE/HTRF technique and the percentage inhibition is calculated according to the 665/620 ratios.

[2] = molecular target: T1, MET (Homo sapiens, UniProt P08581); test: Test C: inhibition of the autophosphorylation of MET, ELISA technique (pppY1230, 1234, 1235), MKN45 cells; assay type: cell-based
T1 construct: endogenous in cells; host or cells: MKN45 cells
How it was run: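 MKN45 cells adhered 24 h, then treated 1 h with compound at 6 concentrations in duplicate, final range 10000 to 30 nM. Lysates assayed by phospho-MET (pY1230/1234/1235) sandwich ELISA with HRP chromogen read at 450 nm.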

[3] = tested on: MKN45 cells; test: Test D: cellular proliferation by 14C-thymidine pulse, MKN45 cells; assay type: cell-based; conditions: cell line not stated (HCT116 or MKN45)
How it was run: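 MKN45 cells (7500/well, RPMI + 10% foetal calf serum) treated with 10 concentrations, 10000 to 0.3 nM in 3-fold steps, duplicate. 14C-thymidine (0.1 μCi/well) added at 72 h; incorporation counted after 24 h pulse, 96 h total treatment.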

[4] = Homo sapiens, MKN-45, cellular proliferation by 14C-thymidine pulse
[5] = cellular proliferation by 14C-thymidine pulse

Chain of RON (Q04912 25-1400): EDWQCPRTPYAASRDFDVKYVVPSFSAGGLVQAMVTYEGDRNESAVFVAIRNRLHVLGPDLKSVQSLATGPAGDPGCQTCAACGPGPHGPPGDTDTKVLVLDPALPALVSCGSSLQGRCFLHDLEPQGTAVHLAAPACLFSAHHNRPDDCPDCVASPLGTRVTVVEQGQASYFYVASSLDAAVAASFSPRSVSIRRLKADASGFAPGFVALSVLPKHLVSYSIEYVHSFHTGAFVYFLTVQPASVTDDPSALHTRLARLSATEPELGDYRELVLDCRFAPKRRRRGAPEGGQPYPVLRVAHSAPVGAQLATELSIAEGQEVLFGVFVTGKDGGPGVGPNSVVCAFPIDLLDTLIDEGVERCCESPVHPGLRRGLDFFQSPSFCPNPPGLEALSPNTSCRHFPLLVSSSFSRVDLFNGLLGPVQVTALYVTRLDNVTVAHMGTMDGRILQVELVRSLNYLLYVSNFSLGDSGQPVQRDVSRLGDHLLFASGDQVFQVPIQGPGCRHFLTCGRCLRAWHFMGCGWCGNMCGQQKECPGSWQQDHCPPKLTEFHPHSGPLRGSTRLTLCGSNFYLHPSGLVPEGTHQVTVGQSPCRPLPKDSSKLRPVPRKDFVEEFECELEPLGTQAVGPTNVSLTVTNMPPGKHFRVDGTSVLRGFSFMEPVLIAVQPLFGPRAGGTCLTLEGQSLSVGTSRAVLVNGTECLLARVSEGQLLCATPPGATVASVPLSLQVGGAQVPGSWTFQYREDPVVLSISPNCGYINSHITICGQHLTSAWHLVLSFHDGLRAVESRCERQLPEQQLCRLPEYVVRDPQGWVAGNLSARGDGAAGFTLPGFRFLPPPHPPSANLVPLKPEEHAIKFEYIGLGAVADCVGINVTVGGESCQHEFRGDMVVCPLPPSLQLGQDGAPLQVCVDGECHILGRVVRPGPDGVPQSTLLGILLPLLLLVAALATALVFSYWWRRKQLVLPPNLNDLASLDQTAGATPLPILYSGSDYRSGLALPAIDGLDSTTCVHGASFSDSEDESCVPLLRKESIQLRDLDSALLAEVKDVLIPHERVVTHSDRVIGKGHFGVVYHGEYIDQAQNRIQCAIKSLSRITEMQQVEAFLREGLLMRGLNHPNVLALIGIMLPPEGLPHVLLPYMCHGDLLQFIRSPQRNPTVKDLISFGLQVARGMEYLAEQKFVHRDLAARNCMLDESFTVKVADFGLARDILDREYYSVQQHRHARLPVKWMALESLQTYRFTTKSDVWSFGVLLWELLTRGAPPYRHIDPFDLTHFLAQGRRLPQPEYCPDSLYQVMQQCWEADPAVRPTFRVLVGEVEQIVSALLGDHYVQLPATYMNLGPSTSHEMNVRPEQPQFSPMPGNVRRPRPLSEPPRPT
T1 sequence (P08581 25-1390): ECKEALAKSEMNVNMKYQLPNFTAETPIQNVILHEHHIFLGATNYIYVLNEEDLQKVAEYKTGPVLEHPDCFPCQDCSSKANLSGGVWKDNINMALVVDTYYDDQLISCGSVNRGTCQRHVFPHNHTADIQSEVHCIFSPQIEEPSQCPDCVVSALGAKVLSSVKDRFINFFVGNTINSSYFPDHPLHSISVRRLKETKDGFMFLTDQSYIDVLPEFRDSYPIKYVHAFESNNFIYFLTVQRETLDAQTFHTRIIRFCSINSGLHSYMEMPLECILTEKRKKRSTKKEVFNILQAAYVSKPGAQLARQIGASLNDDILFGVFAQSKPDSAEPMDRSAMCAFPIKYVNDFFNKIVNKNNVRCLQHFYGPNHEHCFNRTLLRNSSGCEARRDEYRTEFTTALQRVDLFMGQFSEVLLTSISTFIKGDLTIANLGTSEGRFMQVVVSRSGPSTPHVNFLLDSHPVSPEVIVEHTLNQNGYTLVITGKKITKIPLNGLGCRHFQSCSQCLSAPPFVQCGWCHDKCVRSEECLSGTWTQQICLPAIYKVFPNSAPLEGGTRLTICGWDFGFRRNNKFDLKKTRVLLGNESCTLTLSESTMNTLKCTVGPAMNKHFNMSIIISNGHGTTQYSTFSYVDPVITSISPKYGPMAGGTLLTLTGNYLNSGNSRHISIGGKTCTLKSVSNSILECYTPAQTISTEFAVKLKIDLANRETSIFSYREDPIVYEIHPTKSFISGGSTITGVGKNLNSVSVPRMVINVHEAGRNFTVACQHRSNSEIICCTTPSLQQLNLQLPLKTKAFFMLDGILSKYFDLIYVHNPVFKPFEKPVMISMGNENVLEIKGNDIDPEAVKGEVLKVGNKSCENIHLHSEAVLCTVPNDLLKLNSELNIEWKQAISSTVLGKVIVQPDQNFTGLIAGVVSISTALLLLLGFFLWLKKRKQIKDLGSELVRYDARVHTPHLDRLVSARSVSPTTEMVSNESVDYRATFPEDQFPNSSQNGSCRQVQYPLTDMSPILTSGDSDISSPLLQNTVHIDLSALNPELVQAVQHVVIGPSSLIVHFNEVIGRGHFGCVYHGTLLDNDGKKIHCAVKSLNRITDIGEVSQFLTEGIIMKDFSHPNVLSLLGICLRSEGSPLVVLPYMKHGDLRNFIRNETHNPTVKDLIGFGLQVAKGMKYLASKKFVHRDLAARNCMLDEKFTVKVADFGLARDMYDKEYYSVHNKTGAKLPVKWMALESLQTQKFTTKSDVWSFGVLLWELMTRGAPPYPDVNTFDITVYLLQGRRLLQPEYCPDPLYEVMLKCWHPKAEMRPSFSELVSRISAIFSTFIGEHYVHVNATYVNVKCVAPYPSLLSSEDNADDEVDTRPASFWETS

Row | Compound | IC50 [1] | IC50 [2] | IC50 [3, 4] | IC50 [3, 5] | test B [1]
1 | CC(Oc1cc2[nH]c(NC(=O)NCCN3CCOCC3)nc2cc1F)c1c(Cl)cccc1Cl (stereo not drawn) [Example 5, 1-{6-[1-(2,6-dichlorophenyl)ethoxy]-5-fluoro-1H-benzimidazol-2-yl}-3-(2-morpholin-4-ylethyl)urea] | < 500 nM | 500 to 10000 nM | 500 to 10000 nM |  | 
2 | CC(Oc1ccc2nc(NC(=O)NCCC3CCCN3C)sc2c1)c1c(Cl)ccc(F)c1Cl (stereo not drawn) [Example 53, 1-{6-[1-(2,6-dichloro-3-fluorophenyl)ethoxy]-1,3-benzothiazol-2-yl}-3-[2-(1-methylpyrrolidin-2-yl)ethyl]urea] | < 500 nM | < 500 nM | < 500 nM |  | 
3 | CC(Oc1ccc2nc(NC(=O)NCCN3CCN(C(=O)OC(C)(C)C)CC3)sc2c1)c1c(Cl)ccc(F)c1Cl (stereo not drawn) [Example 36, 1,1-dimethylethyl 4-{2-[({6-[1-(2,6-dichloro-3-fluorophenyl)ethoxy]-1,3-benzothiazol-2-yl}carbamoyl)amino]ethyl}piperazine-1-carboxylate] | 500 to 10000 nM | 500 to 10000 nM | > 10000 nM |  | 
4 | CC(Oc1ccc2nc(NC(=O)NCCN3CCOCC3)[nH]c2c1)c1c(Cl)ccc(F)c1Cl (stereo not drawn) [Example 4, 4-{2-[({6-[1-(2,6-Dichloro-3-fluorophenyl)ethoxy]-1H-benzimidazol-2-yl}carbamoyl)amino]ethyl}morpholin-4-ium trifluoroacetate] | < 500 nM | 500 to 10000 nM | 500 to 10000 nM |  | 
5 | CC(Oc1ccc2nc(NC(=O)NCCCN3C(C)CCCC3C)sc2c1)c1c(Cl)ccc(F)c1Cl (stereo not drawn) [Example 47, 1-{6-[1-(2,6-dichloro-3-fluorophenyl)ethoxy]-1,3-benzothiazol-2-yl}-3-[3-(2,6-dimethylpiperidin-1-yl)propyl]urea] | 500 to 10000 nM | 500 to 10000 nM | 500 to 10000 nM |  | 
6 | CC(Oc1cc2sc(NC(=O)NCCOCC3CC3)nc2cc1F)c1c(Cl)ccc(F)c1Cl (stereo not drawn) [Example 103, 1-[2-(cyclopropylmethoxy)ethyl]-3-{6-[1-(2,6-dichloro-3-fluorophenyl)ethoxy]-5-fluoro-1,3-benzothiazol-2-yl}urea] | 500 to 10000 nM | 500 to 10000 nM | 500 to 10000 nM |  | 
7 | CC(Oc1ccc2nc(NC(=O)NCCC3CCNCC3)sc2c1)c1c(Cl)ccc(F)c1Cl (stereo not drawn) [Example 39, 1-{6-[1-(2,6-Dichloro-3-fluorophenyl)ethoxy]-1,3-benzothiazol-2-yl}-3-(2-piperidin-4-ylethyl)urea trifluoroacetate] | < 500 nM | < 500 nM | 500 to 10000 nM |  | 
8 | CC(Oc1ccc2nc(NC(=O)NCCN3CCCCC3)sc2c1)c1c(Cl)ccc(F)c1Cl (stereo not drawn) [Example 50, 1-{6-[1-(2,6-dichloro-3-fluorophenyl)ethoxy]-1,3-benzothiazol-2-yl}-3-(2-piperidin-1-ylethyl)urea] | 500 to 10000 nM | < 500 nM | 500 to 10000 nM |  | 
9 | CC(Oc1ccc2nc(NC(=O)C3CC3)sc2c1)c1c(Cl)ccc(F)c1Cl (stereo not drawn) [Example 66, N-{6-[1-(2,6-dichloro-3-fluorophenyl)ethoxy]-1,3-benzothiazol-2-yl}cyclopropanecarboxamide] | 500 to 10000 nM | < 500 nM | 500 to 10000 nM |  | 
10 | CCN(CC)CCCOC(=O)Nc1nc2cc(F)c(OC(C)c3c(Cl)ccc(F)c3Cl)cc2s1 (stereo not drawn) [Example 70] | 500 to 10000 nM | 500 to 10000 nM | 500 to 10000 nM |  | 
11 | COCCCNC(=O)Nc1nc2cc(F)c(OC(C)c3c(Cl)ccc(F)c3Cl)cc2s1 (stereo not drawn) [Example 104, 1-{6-[1-(2,6-dichloro-3-fluorophenyl)ethoxy]-5-fluoro-1,3-benzothiazol-2-yl}-3-(3-methoxypropyl)urea] | < 500 nM | < 500 nM | 500 to 10000 nM |  | 
12 | CC(Oc1ccc2nc(NC(=O)NCCN3CCCC3)sc2c1)c1c(Cl)ccc(F)c1Cl (stereo not drawn) [Example 51, 1-{6-[1-(2,6-dichloro-3-fluorophenyl)ethoxy]-1,3-benzothiazol-2-yl}-3-(2-pyrrolidin-1-ylethyl)urea] | 500 to 10000 nM | < 500 nM | 500 to 10000 nM |  | 
13 | CC(Oc1ccc2nc(NC(=O)NCCCN3CCN(Cc4ccccc4)CC3)sc2c1)c1c(Cl)ccc(F)c1Cl (stereo not drawn) [Example 49, 1-[3-(4-benzylpiperazin-1-yl)propyl]-3-{6-[1-(2,6-dichloro-3-fluorophenyl)ethoxy]-1,3-benzothiazol-2-yl}urea] | 500 to 10000 nM | < 500 nM | 500 to 10000 nM |  | 
14 | CC(Oc1ccc2nc(NC(=O)NCCN3CCOCC3)sc2c1)c1c(Cl)ccc(F)c1Cl (single isomer, unassigned) [Example 25, 1-{6-[(1R*)-(2,6-dichloro-3-fluorophenyl)ethoxy]-1,3-benzothiazol-2-yl}-3-(2-morpholin-4-ylethyl)urea] | < 500 nM | < 500 nM |  | < 500 nM | 
15 | CC(Oc1cc2sc(NC(=O)NCCN3CCOCC3)nc2cc1Cl)c1c(Cl)ccc(F)c1Cl (stereo not drawn) [Example 106, 1-{5-chloro-6-[1-(2,6-dichloro-3-fluorophenyl)ethoxy]-1,3-benzothiazol-2-yl}-3-[2-(morpholin-4-yl)ethyl]urea] | 500 to 10000 nM | 500 to 10000 nM | 500 to 10000 nM |  | 
16 | CC(Oc1ccc2nc(NC(=O)OCCN3CCOCC3)sc2c1)c1c(Cl)ccc(F)c1Cl (stereo not drawn) [Example 74] | 500 to 10000 nM | < 500 nM | 500 to 10000 nM |  | 

Other lines, results leading:

Row | IC50 [1] | IC50 [2] | IC50 [3, 4] | IC50 [3, 5] | test B [1] | Compound
17 | 500 to 10000 nM | < 500 nM | 500 to 10000 nM |  |  | CC(Oc1cc2sc(NC(=O)NCCCN)nc2cc1F)c1c(Cl)ccc(F)c1Cl (stereo not drawn) [Example 128, 1-(3-aminopropyl)-3-{6-[1-(2,6-dichloro-3-fluorophenyl)ethoxy]-5-fluoro-1,3-benzothiazol-2-yl}urea]
18 | < 500 nM | < 500 nM | < 500 nM |  |  | CC(Oc1cc2sc(NC(=O)NCCN3CCOCC3)nc2cc1F)c1c(F)ccc(Cl)c1Cl (single isomer, unassigned) [Example 112, 1-{6-[(1R*)-1-(2,3-dichloro-6-fluorophenyl)ethoxy]-5-fluoro-1,3-benzothiazol-2-yl}-3-[2-(morpholin-4-yl)ethyl]urea]
19 | 500 to 10000 nM | < 500 nM | < 500 nM |  |  | CC(Oc1cc2sc(NC(=O)NCCN3CCCC3)nc2cc1F)c1c(F)ccc(Cl)c1Cl (single isomer, unassigned) [Example 119, 1-{6-[(1R*)-1-(2,3-dichloro-6-fluorophenyl)ethoxy]-5-fluoro-1,3-benzothiazol-2-yl}-3-[2-(pyrrolidin-1-yl)ethyl]urea]
20 | 500 to 10000 nM | 500 to 10000 nM |  | 500 to 10000 nM |  | CC(Oc1cc2sc(NC(=O)NCCN3CCN(C)CC3)nc2cc1F)c1c(F)ccc(Cl)c1Cl (single isomer, unassigned) [Example 117, 1-{6-[(1S*)-1-(2,3-dichloro-6-fluorophenyl)ethoxy]-5-fluoro-1,3-benzothiazol-2-yl}-3-[2-(4-methylpiperazin-1-yl)ethyl]urea]
21 | < 500 nM | < 500 nM | 500 to 10000 nM |  |  | CC(Oc1ccc2nc(NC(=O)NCCN3CCN(C)CC3)sc2c1)c1c(F)ccc(Cl)c1Cl (stereo not drawn) [Example 108, 1-{6-[1-(2,3-dichloro-6-fluorophenyl)ethoxy]-1,3-benzothiazol-2-yl}-3-[2-(4-methylpiperazin-1-yl)ethyl]urea]
22 |  | < 500 nM | 500 to 10000 nM |  | += | CC(Oc1cc2sc(NC(=O)NCCN3CCNC(=O)C3)nc2cc1F)c1c(Cl)ccc(F)c1Cl (stereo not drawn) [Example 130, 1-{6-[1-(2,6-dichloro-3-fluorophenyl)ethoxy]-5-fluoro-1,3-benzothiazol-2-yl}-3-[2-(3-oxopiperazin-1-yl)ethyl]urea]
23 | < 500 nM | < 500 nM | < 500 nM |  |  | CC(Oc1cc2sc(NC(=O)NCCN3CCN(C)CC3)nc2cc1F)c1c(F)ccc(Cl)c1Cl (stereo not drawn) [Example 115, 1-{6-[1-(2,3-dichloro-6-fluorophenyl)ethoxy]-5-fluoro-1,3-benzothiazol-2-yl}-3-[2-(4-methylpiperazin-1-yl)ethyl]urea]
24 | < 500 nM | < 500 nM | 500 to 10000 nM |  |  | CC(Oc1ccc2nc(NC(=O)NCCC3CCCN3C)sc2c1)c1c(F)ccc(Cl)c1Cl (stereo not drawn) [Example 110, 1-{6-[1-(2,3-dichloro-6-fluorophenyl)ethoxy]-1,3-benzothiazol-2-yl}-3-[2-(1-methylpyrrolidin-2-yl)ethyl]urea]
25 | 500 to 10000 nM | 500 to 10000 nM | 500 to 10000 nM |  |  | CC(Oc1ccc2nc(NC(=O)NCCN3CCCC3)sc2c1)c1c(Cl)ccc(Cl)c1Cl (stereo not drawn) [Example 125, 1-[2-(pyrrolidin-1-yl)ethyl]-3-{6-[1-(2,3,6-trichlorophenyl)ethoxy]-1,3-benzothiazol-2-yl}urea]
